# From ChEMBL document CHEMBL1201861, “Genomics of Drug Sensitity in Cancer screening data, Wellcome Trust Sanger Institute”
# Tests used:
# Test in all cases: cells
# Assay type in all cases: functional, cell-based, Homo sapiens
# [1] = test system: NOMO-1; conditions: Homo sapiens, NOMO-1;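 also: growth inhibition of human NOMO-1 cells measured by a cell viability assay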
# Description: SANGER: Inhibition of human NOMO-1 cell growth in a cell viability assay.
# [2] = test system: LB831-BLC; conditions: Homo sapiens, LB831-BLC;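 also: growth inhibition of LB831-BLC cells, read out with a cell viability assay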
# Description: SANGER: Inhibition of human LB831-BLC cell growth in a cell viability assay.
# [3] = test system: SW684; conditions: Homo sapiens, SW684;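 also: growth inhibition of human SW684 cells, measured by a cell viability assay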
# Description: SANGER: Inhibition of human SW684 cell growth in a cell viability assay.
# [4] = test system: GI-ME-N; conditions: Homo sapiens, GI-ME-N;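 also: growth inhibition of human GI-ME-N cells, read out with a cell viability assay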
# Description: SANGER: Inhibition of human GI-ME-N cell growth in a cell viability assay.
# [5] = test system: NCI-H446; conditions: Homo sapiens, NCI-H446;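 also: growth inhibition of NCI-H446 cells determined by a cell viability assay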
# Description: SANGER: Inhibition of human NCI-H446 cell growth in a cell viability assay.
# [6] = test system: SBC-1; conditions: Homo sapiens, SBC-1;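 also: cell viability assay measuring growth inhibition of the SBC-1 cell line, IC50 being the concentration that halves growth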
# Description: SANGER: Inhibition of human SBC-1 cell growth in a cell viability assay.
# [7] = test system: KG-1; conditions: Homo sapiens, KG-1;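 also: growth inhibition of KG-1 cells, read out by a cell viability assay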
# Description: SANGER: Inhibition of human KG-1 cell growth in a cell viability assay.
# [8] = test system: ES6; conditions: Homo sapiens, ES6;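 also: growth inhibition of human ES6 cells, read out with a cell viability assay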
# Description: SANGER: Inhibition of human ES6 cell growth in a cell viability assay.
# [9] = test system: NCI-H1581; conditions: Homo sapiens, NCI-H1581;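 also: cell growth inhibition read out by a viability assay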
# Description: SANGER: Inhibition of human NCI-H1581 cell growth in a cell viability assay.
# [10] = test system: LB373-MEL-D; conditions: Homo sapiens, LB373-MEL-D;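 also: growth inhibition of the cell line, read out in a cell viability assay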
# Description: SANGER: Inhibition of human LB373-MEL-D cell growth in a cell viability assay.
# [11] = test system: KE-37; conditions: Homo sapiens, KE-37;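 also: growth inhibition of KE-37 cells, read out with a cell viability assay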
# Description: SANGER: Inhibition of human KE-37 cell growth in a cell viability assay.
# [12] = test system: MZ2-MEL; conditions: Homo sapiens, MZ2-MEL;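 also: growth inhibition of MZ2-MEL cells read out with a cell viability assay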
# Description: SANGER: Inhibition of human MZ2-MEL cell growth in a cell viability assay.
# [13] = test system: SCH; conditions: Homo sapiens, SCH;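 also: growth inhibition of human SCH cells, read out in a cell viability assay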
# Description: SANGER: Inhibition of human SCH cell growth in a cell viability assay.
# [14] = test system: NCI-N87; conditions: Homo sapiens, NCI-N87;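 also: growth inhibition of human NCI-N87 cells, read out with a cell viability assay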
# Description: SANGER: Inhibition of human NCI-N87 cell growth in a cell viability assay.
# [15] = test system: P30-OHK; conditions: Homo sapiens, P30-OHK;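 also: growth inhibition of the P30-OHK cell line, read out with a cell viability assay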
# Description: SANGER: Inhibition of human P30-OHK cell growth in a cell viability assay.
# [16] = test system: TK-10; conditions: Homo sapiens, TK-10;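 also: growth inhibition of TK-10 cells, read out in a cell viability assay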
# Description: SANGER: Inhibition of human TK10 cell growth in a cell viability assay.
# [17] = test system: TE-11; conditions: Homo sapiens, TE-11;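 also: growth inhibition of human TE-11 cells, read out by a cell viability assay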
# Description: SANGER: Inhibition of human TE-11 cell growth in a cell viability assay.
# [18] = test system: ES7; conditions: Homo sapiens, ES7;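 also: growth inhibition of cultured human ES7 cells, read out as cell viability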
# Description: SANGER: Inhibition of human ES7 cell growth in a cell viability assay.
# [19] = test system: Lu-65; conditions: Homo sapiens, Lu-65;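 also: growth inhibition of Lu-65 cancer cells, read out by a cell viability assay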
# Description: SANGER: Inhibition of human LU-65 cell growth in a cell viability assay.
# [20] = test system: RPMI-8226; conditions: Homo sapiens, RPMI-8226
# Description: SANGER: Inhibition of human RPMI-8226 cell growth in a cell viability assay.
# [21] = test system: ES5; conditions: Homo sapiens, ES5;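 also: growth inhibition of human ES5 cells, read out by a cell viability assay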
# Description: SANGER: Inhibition of human ES5 cell growth in a cell viability assay.
# [22] = test system: JVM-3; conditions: Homo sapiens, JVM-3;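 also: growth inhibition of human JVM-3 cells, read out with a cell viability assay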
# Description: SANGER: Inhibition of human JVM-3 cell growth in a cell viability assay.
# [23] = test system: BT-474; conditions: Homo sapiens, BT-474
# Description: SANGER: Inhibition of human BT-474 cell growth in a cell viability assay.
# [24] = test system: KARPAS-299; conditions: Homo sapiens, KARPAS-299
# Description: SANGER: Inhibition of human KARPAS-299 cell growth in a cell viability assay.
# [25] = test system: KALS-1; conditions: Homo sapiens, KALS-1;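 also: growth inhibition of KALS-1 cells, determined with a cell viability assay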
# Description: SANGER: Inhibition of human KALS-1 cell growth in a cell viability assay.
# [26] = test system: LC-2-ad; conditions: Homo sapiens, LC-2-ad;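 also: growth inhibition of human LC-2-ad cells, read out with a cell viability assay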
# Description: SANGER: Inhibition of human LC-2-ad cell growth in a cell viability assay.
# [27] = test system: KARPAS-45; conditions: Homo sapiens, KARPAS-45;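 also: inhibition of cell line growth, read out through a viability assay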
# Description: SANGER: Inhibition of human KARPAS-45 cell growth in a cell viability assay.
# [28] = test system: K562; conditions: Homo sapiens, K562
# Description: SANGER: Inhibition of human K-562 cell growth in a cell viability assay.
# [29] = test system: NEC8; conditions: Homo sapiens, NEC8;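 also: growth inhibition of human NEC8 cells, read out by a cell viability assay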
# Description: SANGER: Inhibition of human NEC8 cell growth in a cell viability assay.
# [30] = test system: NCI-H1650; conditions: Homo sapiens, NCI-H1650;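 also: growth inhibition of human NCI-H1650 cells measured by a cell viability assay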
# Description: SANGER: Inhibition of human NCI-H1650 cell growth in a cell viability assay.
# [31] = test system: NMC-G1; conditions: Homo sapiens, NMC-G1;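 also: growth inhibition of the NMC-G1 cell line, measured with a cell viability read-out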
# Description: SANGER: Inhibition of human NMC-G1 cell growth in a cell viability assay.
# [32] = test system: NB10; conditions: Homo sapiens, NB10;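 also: growth inhibition of NB10 cells, read out by a cell viability assay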
# Description: SANGER: Inhibition of human NB10 cell growth in a cell viability assay.
# [33] = test system: KGN; conditions: Homo sapiens, KGN;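 also: growth inhibition of KGN cells, read out with a cell viability assay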
# Description: SANGER: Inhibition of human KGN cell growth in a cell viability assay.
# [34] = test system: PSN1; conditions: Homo sapiens, PSN1;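 also: suppression of growth of human PSN1 cells, read out by a cell viability assay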
# Description: SANGER: Inhibition of human PSN1 cell growth in a cell viability assay.
# [35] = test system: LS-513; conditions: Homo sapiens, LS-513
# Description: SANGER: Inhibition of human LS-513 cell growth in a cell viability assay.
# [36] = test system: KY821; conditions: Homo sapiens, KY821;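 also: growth inhibition of human KY821 cells, read out by a cell viability assay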
# Description: SANGER: Inhibition of human KY821 cell growth in a cell viability assay.
# [37] = test system: NCI-H1648; conditions: Homo sapiens, NCI-H1648;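 also: cell viability assay measuring inhibition of NCI-H1648 cell growth, from the Sanger screening data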
# Description: SANGER: Inhibition of human NCI-H1648 cell growth in a cell viability assay.
# [38] = test system: SW872; conditions: Homo sapiens, SW872;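 also: growth inhibition of SW872 cells, read out by a viability assay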
# Description: SANGER: Inhibition of human SW872 cell growth in a cell viability assay.
# [39] = test system: JVM-2; conditions: Homo sapiens, JVM-2;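 also: growth inhibition of JVM-2 cells determined by a cell viability assay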
# Description: SANGER: Inhibition of human JVM-2 cell growth in a cell viability assay.
# [40] = test system: CW-2; conditions: Homo sapiens, CW-2;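 also: growth inhibition of CW-2 cells, read out by a cell viability assay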
# Description: SANGER: Inhibition of human CW-2 cell growth in a cell viability assay.
# [41] = test system: EC-GI-10; conditions: Homo sapiens, EC-GI-10
# Description: SANGER: Inhibition of human EC-GI-10 cell growth in a cell viability assay.
# [42] = test system: ES4; conditions: Homo sapiens, ES4;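 also: growth inhibition of human ES4 cells, read out by a cell viability assay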
# Description: SANGER: Inhibition of human ES4 cell growth in a cell viability assay.
# [43] = test system: ACN; conditions: Homo sapiens, ACN;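 also: growth inhibition of the human ACN cell line, read out via cell viability testing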
# Description: SANGER: Inhibition of human ACN cell growth in a cell viability assay.
# [44] = test system: A101D; conditions: Homo sapiens, A101D;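 also: growth inhibition of the cell line, measured with a viability assay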
# Description: SANGER: Inhibition of human A101D cell growth in a cell viability assay.
# [45] = test system: NOS-1; conditions: Homo sapiens, NOS-1;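 also: growth inhibition of the human NOS-1 cell line, read out with a cell viability assay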
# Description: SANGER: Inhibition of human NOS-1 cell growth in a cell viability assay.
# [46] = test system: TE-10; conditions: Homo sapiens, TE-10;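 also: growth inhibition of TE-10 cells, measured by a cell viability assay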
# Description: SANGER: Inhibition of human TE-10 cell growth in a cell viability assay.
# [47] = test system: RKO; conditions: Homo sapiens, RKO;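 also: growth inhibition of human RKO cells, read out with a cell viability assay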
# Description: SANGER: Inhibition of human RKO cell growth in a cell viability assay.
# [48] = test system: KINGS-1; conditions: Homo sapiens, KINGS-1;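 also: cell viability assay measuring suppression of KINGS-1 cell growth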
# Description: SANGER: Inhibition of human KINGS-1 cell growth in a cell viability assay.
# [49] = test system: LS-411N; conditions: Homo sapiens, LS-411N
# [50] = test system: MOLT-16; conditions: Homo sapiens, MOLT-16;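 also: growth inhibition of human MOLT-16 cells, read out with a cell viability assay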
# Description: SANGER: Inhibition of human MOLT-16 cell growth in a cell viability assay.
compound,measurement,setting,value
N#Cc1c(O)c2c(-c3ccc(-c4ccccc4O)cc3)csc2[nH]c1=O,IC50,[1],0.263 µM
same,IC50,[2],> 1.02 µM
same,IC50,[3],> 1.02 µM
same,IC50,[4],> 1.02 µM
same,IC50,[5],> 1.02 µM
same,IC50,[6],> 1.02 µM
same,IC50,[7],0.409 µM
same,IC50,[8],> 1.02 µM
same,IC50,[9],> 1.02 µM
same,IC50,[10],> 1.02 µM
same,IC50,[11],0.129 µM
same,IC50,[12],> 1.02 µM
same,IC50,[13],> 1.02 µM
same,IC50,[14],> 1.02 µM
same,IC50,[15],0.993 µM
same,IC50,[16],> 1.02 µM
same,IC50,[17],> 1.02 µM
same,IC50,[18],> 1.02 µM
same,IC50,[19],0.52 µM
same,IC50,[20],0.246 µM
same,IC50,[21],> 1.02 µM
same,IC50,[22],> 1.02 µM
same,IC50,[23],0.151 µM
same,IC50,[24],0.948 µM
same,IC50,[25],> 1.02 µM
same,IC50,[26],> 1.02 µM
same,IC50,[27],0.17 µM
same,IC50,[28],> 1.02 µM
same,IC50,[29],0.48 µM
same,IC50,[30],> 1.02 µM
same,IC50,[31],> 1.02 µM
same,IC50,[32],> 1.02 µM
same,IC50,[33],> 1.02 µM
same,IC50,[34],> 1.02 µM
same,IC50,[35],> 1.02 µM
same,IC50,[36],0.817 µM
same,IC50,[37],> 1.02 µM
same,IC50,[38],> 1.02 µM
same,IC50,[39],> 1.02 µM
same,IC50,[40],> 1.02 µM
same,IC50,[41],> 1.02 µM
same,IC50,[42],> 1.02 µM
same,IC50,[43],> 1.02 µM
same,IC50,[44],> 1.02 µM
same,IC50,[45],> 1.02 µM
same,IC50,[46],> 1.02 µM
same,IC50,[47],> 1.02 µM
same,IC50,[48],> 1.02 µM
same,IC50,[49],> 1.02 µM
same,IC50,[50],0.0619 µM
C=C(c1ccc(C(=O)O)cc1)c1cc2c(cc1C)C(C)(C)CCC2(C)C [BEXAROTENE],IC50,[1],> 8 µM
same,IC50,[2],> 8 µM
same,IC50,[3],> 8 µM
same,IC50,[4],> 8 µM
same,IC50,[5],> 8 µM
same,IC50,[6],> 8 µM
same,IC50,[7],> 8 µM
same,IC50,[8],> 8 µM
same,IC50,[9],> 8 µM
same,IC50,[10],> 8 µM
same,IC50,[11],> 8 µM
same,IC50,[12],> 8 µM
same,IC50,[13],> 8 µM
same,IC50,[14],> 8 µM
same,IC50,[15],> 8 µM
same,IC50,[16],> 8 µM
same,IC50,[17],> 8 µM
same,IC50,[18],> 8 µM
same,IC50,[19],> 8 µM
same,IC50,[20],> 8 µM
same,IC50,[21],> 8 µM
same,IC50,[22],> 8 µM
same,IC50,[23],> 8 µM
same,IC50,[24],> 8 µM
same,IC50,[25],> 8 µM
same,IC50,[26],> 8 µM
same,IC50,[28],> 8 µM
same,IC50,[29],> 8 µM
same,IC50,[30],> 8 µM
same,IC50,[31],> 8 µM
same,IC50,[32],> 8 µM
same,IC50,[33],> 8 µM
same,IC50,[34],4 µM
same,IC50,[35],> 8 µM
same,IC50,[36],> 8 µM
same,IC50,[37],> 8 µM
same,IC50,[38],> 8 µM
same,IC50,[39],> 8 µM
same,IC50,[40],> 8 µM
same,IC50,[41],> 8 µM
same,IC50,[42],3.77 µM
same,IC50,[43],> 8 µM
same,IC50,[44],> 8 µM
same,IC50,[45],6.92 µM
same,IC50,[46],> 8 µM
same,IC50,[47],> 8 µM
same,IC50,[48],> 8 µM
same,IC50,[49],> 8 µM
same,IC50,[50],> 8 µM
CS(=O)(=O)c1ccc(C(=O)Nc2ccc(Cl)c(-c3ccccn3)c2)c(Cl)c1 [VISMODEGIB],IC50,[1],> 10 µM
same,IC50,[2],> 10 µM
same,IC50,[3],> 10 µM
same,IC50,[4],> 10 µM
same,IC50,[5],> 10 µM
same,IC50,[6],> 10 µM
same,IC50,[7],> 10 µM
same,IC50,[8],> 10 µM
same,IC50,[9],> 10 µM
same,IC50,[10],> 10 µM
same,IC50,[11],> 10 µM
same,IC50,[12],> 10 µM
same,IC50,[13],> 10 µM
same,IC50,[14],> 10 µM
same,IC50,[15],> 10 µM
same,IC50,[16],> 10 µM
same,IC50,[17],> 10 µM
same,IC50,[18],> 10 µM
same,IC50,[19],> 10 µM
same,IC50,[20],> 10 µM
same,IC50,[21],> 10 µM
same,IC50,[22],> 10 µM
same,IC50,[23],> 10 µM
same,IC50,[24],> 10 µM
same,IC50,[25],> 10 µM
same,IC50,[26],> 10 µM
same,IC50,[27],> 10 µM
same,IC50,[28],> 10 µM
same,IC50,[29],> 10 µM
same,IC50,[30],> 10 µM
same,IC50,[31],> 10 µM
same,IC50,[32],> 10 µM
same,IC50,[33],> 10 µM
same,IC50,[34],> 10 µM
same,IC50,[35],> 10 µM
same,IC50,[37],> 10 µM
same,IC50,[38],> 10 µM
same,IC50,[39],> 10 µM
same,IC50,[40],> 10 µM
same,IC50,[41],> 10 µM
same,IC50,[42],> 10 µM
same,IC50,[43],8.5 µM
same,IC50,[44],> 10 µM
same,IC50,[45],> 10 µM
same,IC50,[46],> 10 µM
same,IC50,[47],> 10 µM
same,IC50,[48],> 10 µM
same,IC50,[49],> 10 µM
same,IC50,[50],> 10 µM
